We go through 47 molecules from patent US20240034729A9, “HETEROCYCLIC COMPOUND, INTERMEDIATE, PREPARATION METHOD THEREFOR AND APPLICATION THEREOF” (WUHAN LL SCIENCE AND TECHNOLOGY DEVELOPMENT CO., LTD., priority 2018, published 2024).

For orientation: IC50 means the concentration that gives 50% inhibition.

Structures are written as SMILES. Like-named read-outs stand apart in the source and are kept apart here. A value given as a limit tells only on which side of the number the result lay.

In this assay the target is hP2X3 (human purinergic P2X receptor subtype 3) (Homo sapiens (Human), UniProt P56373). Description: FLIPR calcium assay, hP2X3 expressed in HEK293 cells. The assay is classed as cell-based. The note with it: read-out: P2X3 IC50.
Setting [1] is: HEK293 cells expressing hP2X3, agonist BZ-ATP 2.5 μM, class symbols.

Chain of hP2X3 (human purinergic P2X receptor subtype 3) (P56373 whole entry): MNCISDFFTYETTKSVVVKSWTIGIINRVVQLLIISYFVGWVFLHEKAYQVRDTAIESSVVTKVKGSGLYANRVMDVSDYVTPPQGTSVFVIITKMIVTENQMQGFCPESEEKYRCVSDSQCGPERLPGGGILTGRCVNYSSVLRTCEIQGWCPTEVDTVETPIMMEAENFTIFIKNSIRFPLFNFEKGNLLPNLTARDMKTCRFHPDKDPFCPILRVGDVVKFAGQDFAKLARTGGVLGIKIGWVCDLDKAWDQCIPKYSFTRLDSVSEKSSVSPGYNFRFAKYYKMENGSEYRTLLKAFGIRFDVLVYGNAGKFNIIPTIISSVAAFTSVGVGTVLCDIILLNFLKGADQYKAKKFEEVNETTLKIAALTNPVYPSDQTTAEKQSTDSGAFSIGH

Take `CNC(=O)Cc1cc(F)c(-c2nc3cc(C)ccn3c2C[C@H]2CN(C(=O)OC)CCO2)c(F)c1` [Compound 64, methyl (S)-2-((2-(4-(2-(methylamino)-2-oxoethyl)-2,6-difluorophenyl)-7-methylimidazo[1,2-a]pyridin-3-yl)methyl) morpholine-4-carboxylate]: the IC50 lay within 50 to 200 nM.
Regarding `COC(=O)N1CCO[C@@H](Cc2c(-c3c(F)cc(C4(C(N)=O)CC4)cc3F)nc3cc(C)ccn23)C1` [Compound 65], the half-maximal inhibitory concentration (IC50) is 50 to 200 nM.
On the same count and under the same terms, the figure for `CNC(=O)C1(c2cc(F)c(-c3nc4cc(C)ccn4c3C[C@H]3CN(C(=O)OC)CCO3)c(F)c2)CC1` [Compound 66] is 50 to 200 nM; for `CNC1(c2cc(F)c(-c3nc4cc(C)ccn4c3C[C@H]3CN(C(=O)OC)CCO3)c(F)c2)CC1` [Compound 67, methyl (S)-2-((2-(2,6-difluoro-4-(1-(methylamino)cyclopropyl)phenyl)-7-methylimidazo[1,2-a]pyridin-3-yl)methyl) morpholine-4-carboxylate] it is 10 to 50 nM; for `CNC(c1cc(F)c(-c2nc3cc(C)ccn3c2C[C@H]2CN(C(=O)OC)CCO2)c(F)c1)C(F)(F)F` (stereo partly drawn) [Compound 68, methyl (S)-2-((2-(2,6-difluoro-4-(2,2,2-trifluoro-1-(methylamino)ethyl)phenyl)-7-methylimidazo[1,2-a]pyridin-3-yl)methyl)morpholine-4-carboxylate] it is 10 to 50 nM.
Regarding `CNC1(c2cc(F)c(-c3nc4cc(C)ccn4c3C[C@H]3CN(C(=O)OC)CCO3)c(F)c2)COC1` [Compound 69, methyl (S)-2-((2-(2,6-difluoro-4-(3-(methylamino)oxetan-3-yl)phenyl)-7-methylimidazo[1,2-a]pyridin-3-yl)methyl) morpholine-4-carboxylate], the IC50 is 10 to 50 nM.
On the same count and under the same terms, the same measure for `COC(=O)N1CCO[C@@H](Cc2c(-c3c(F)cc(C4(N)COC4)cc3F)nc3cc(C)ccn23)C1` [Compound 70]: 10 to 50 nM; for `COC(=O)N1CCO[C@@H](Cc2c(-c3c(F)cc(Nc4ccc(Cl)o4)cc3F)nc3cc(C)ccn23)C1` [Compound 72]: 50 to 200 nM.
The same measure, in the same setting: the figure for `COC(=O)N1CCO[C@@H](Cc2c(-c3c(F)cc(Nc4ccc(F)o4)cc3F)nc3cc(C)ccn23)C1` [Compound 73] is 50 to 200 nM; for `COC(=O)N1CCO[C@@H](Cc2c(-c3c(F)cc(Nc4ccco4)cc3F)nc3cc(C)ccn23)C1` [Compound 74] it is 50 to 200 nM.
The same measure, in the same setting: the same measure for `COC(=O)N1CCO[C@@H](Cc2c(-c3c(F)cc(NCCCC(N)=O)cc3F)nc3cc(C)ccn23)C1` [Compound 77]: less than 10 nM; for `COC(=O)N1CCO[C@@H](Cc2c(-c3c(F)cc(NC4CC(=O)C4)cc3F)nc3cc(C)ccn23)C1` [Compound 78]: 10 to 50 nM; for `COC(=O)N1CCO[C@@H](Cc2c(-c3c(F)cc(NC4CCC(=O)CC4)cc3F)nc3cc(C)ccn23)C1` [Compound 80, methyl (S)-2-((2-(2,6-difluoro-4-((4-carbonylcyclohexyl)amino)phenyl)-7-methylimidazo[1,2-a]pyridin-3-yl)methyl) morpholine-4-carboxylate]: 10 to 50 nM.
Take `COC(=O)N1CCO[C@@H](Cc2c(-c3c(F)cc(NC(=O)C4CCC(C(=O)O)CC4)cc3F)nc3cc(C)ccn23)C1` (some centres unmarked) [Compound 82]: the IC50 lay in the range of 10 to 50 nM.
Still for that read-out and setting: the figure for `COC(=O)N1CCO[C@@H](Cc2c(-c3c(F)cc(NC(=O)C4CCC(=O)CC4)cc3F)nc3cc(C)ccn23)C1` [Compound 83] is 50 to 200 nM; for `COC(=O)N1CCO[C@@H](Cc2c(-c3c(F)cc(NC(=O)c4ccccc4)cc3F)nc3cc(C)ccn23)C1` [Compound 84] it is 50 to 200 nM; for `COC(=O)N1CCO[C@@H](Cc2c(-c3c(F)cc(NC(=O)c4ccc(C(=O)O)cc4)cc3F)nc3cc(C)ccn23)C1` [Compound 85, (S)-4-((3,5-difluoro-4-(3-((4-(carbomethoxy<methoxycarbonyl>)morpholin-2-yl)methyl)-7-methylimidazo[1,2-a]pyridin-2-yl)phenyl)carbamoyl)benzoic acid] it is 50 to 200 nM.
Still for that read-out and setting: the same measure for `COC(=O)N1CCO[C@@H](Cc2c(-c3c(F)cc(NC(=O)c4ccncc4)cc3F)nc3cc(C)ccn23)C1` [Compound 86]: 10 to 50 nM; for `C=CC(=O)Nc1cc(F)c(-c2nc3cc(C)ccn3c2C[C@H]2CN(C(=O)OC)CCO2)c(F)c1` [Compound 87]: 50 to 200 nM.
Same read-out and setting: the figure for `COC(=O)N1CCO[C@@H](Cc2c(-c3c(F)cc(NC(=O)C#CC(=O)O)cc3F)nc3cc(C)ccn23)C1` [Compound 88] is 10 to 50 nM; for `COC(=O)N1CCO[C@@H](Cc2c(-c3c(F)cc(NC(=O)CC(C)(C)O)cc3F)nc3cc(C)ccn23)C1` [Compound 90] it is 10 to 50 nM.
`COC(=O)N1CCO[C@@H](Cc2c(-c3c(F)cc(NC(=O)CC(C)(C)C(=O)O)cc3F)nc3cc(C)ccn23)C1` [Compound 91]: the IC50 was less than 10 nM.
Same read-out and setting: the same measure for `COC(=O)N1CCO[C@@H](Cc2c(-c3c(F)cc(NC(=O)CC(C)C(=O)O)cc3F)nc3cc(C)ccn23)C1` (some centres unmarked) [Compound 92]: 10 to 50 nM; for `COC(=O)N1CCO[C@@H](Cc2c(-c3c(F)cc(NC(=O)CCC(C)(C)O)cc3F)nc3cc(C)ccn23)C1` [Compound 93]: 10 to 50 nM; for `CNC(=O)c1cc(F)c(-c2nc3cc(C)cnc3n2C[C@H]2CN(C(=O)OC)CCO2)c(F)c1` [Compound 94, methyl (S)-2-((2-(2,6-difluoro-4-(methylcarbamoyl)phenyl)-6-methyl-3H-imidazo[4,5-b]pyridin-3-yl)methyl)morpholine-4-carboxylate]: 50 to 200 nM.
`COC(=O)N1CCO[C@@H](Cc2c(-c3c(F)cc(NC(=O)CC4(C(=O)O)CC4)cc3F)nc3cc(C)ccn23)C1` [Compound 95]: the half-inhibitory concentration (IC50) fell in the range of 10 to 50 nM.
On the same count and under the same terms, the same measure for `COC(=O)N1CCO[C@@H](Cc2c(-c3c(F)cc(NC(=O)CC4(C#N)CC4)cc3F)nc3cc(C)ccn23)C1` [Compound 96]: 10 to 50 nM.
The same measure, in the same setting: the figure for `COC(=O)N1CCO[C@@H](Cc2c(-c3c(F)cc(-n4cc[nH]c4=O)cc3F)nc3cc(C)ccn23)C1` [Compound 98] is 10 to 50 nM; for `COC(=O)N1CCO[C@@H](Cc2c(-c3c(F)cc(-n4ccoc4=O)cc3F)nc3cc(C)ccn23)C1` [Compound 99] it is 10 to 50 nM.
The same measure, in the same setting: the figure for `COC(=O)N1CCO[C@@H](Cc2c(-c3c(F)cc(N4C=CCC4=O)cc3F)nc3cc(C)ccn23)C1` [Compound 100] is 10 to 50 nM.
Turning to `COC(=O)N1CCO[C@@H](Cc2c(-c3c(F)cc(N4CCCC4=O)cc3F)nc3cc(C)ccn23)C1` [Compound 101], the concentration for half-maximal inhibition (IC50) lay within 10 to 50 nM.
On the same count and under the same terms, the figure for `COC(=O)N1CCO[C@@H](Cc2c(-c3c(F)cc(-c4ccn(C(F)F)n4)cc3F)nc3cc(C)ccn23)C1` [Compound 102] is less than 10 nM; for `COC(=O)N1CCO[C@@H](Cc2c(-c3c(F)cc(-c4cc[nH]n4)cc3F)nc3cc(F)ccn23)C1` [Compound 103] it is 50 to 200 nM; for `COC(=O)N1CCO[C@@H](Cc2c(-c3c(F)cc(-c4nc(S(N)(=O)=O)c[nH]4)cc3F)nc3cc(C)ccn23)C1` [Compound 105] it is less than 10 nM.
The same measure, in the same setting: the same measure for `COC(=O)N1CCO[C@@H](Cc2c(-c3c(F)cc(-c4nc(C#N)c[nH]4)cc3F)nc3cc(F)ccn23)C1` [Compound 106]: 10 to 50 nM.
On to `COC(=O)N1CCO[C@@H](Cc2c(-c3c(F)cc(-n4cnc(C(=O)O)c4)cc3F)nc3cc(C)ccn23)C1` [Compound 107, (S)-1-(3,5-difluoro-4-(3-((4-(carbomethoxy<methoxycarbonyl>)morpholin-2-yl)methyl)-7-methylimidazo[1,2-a]pyridin-2-yl)phenyl)-1H-imidazole-4-carboxylic acid], for which the IC50 under setting [1] lay within 10 to 50 nM.
`COC(=O)c1cn(-c2cc(F)c(-c3nc4cc(C)ccn4c3C[C@H]3CN(C(=O)OC)CCO3)c(F)c2)cn1` [Compound 108]: under setting [1], the IC50 was in the range of 200 to 5000 nM.
Regarding `COC(=O)N1CCO[C@@H](Cc2c(-c3c(F)cc(-n4cnc(C(F)(F)F)c4)cc3F)nc3cc(C)ccn23)C1` [Compound 109, methyl (S)-2-((2-(2,6-difluoro-4-(4-trifluoromethyl-1H-imidazol-1-yl)phenyl)-7-methylimidazo[1,2-a]pyridin-3-yl)methyl)morpholine-4-carboxylate], the IC50 fell in the range of 50 to 200 nM.
Consider `COC(=O)N1CCO[C@@H](Cc2c(-c3c(F)cc(-n4cnc(N)c4)cc3F)nc3cc(C)ccn23)C1` [Compound 111], for which the concentration for half-maximal inhibition (IC50) is 10 to 50 nM.
Turning to `COC(=O)N1CCO[C@@H](Cc2c(-c3c(F)cc(-n4cnc(OC)c4)cc3F)nc3cc(C)ccn23)C1` [Compound 112], the concentration for half-maximal inhibition (IC50) under setting [1] is 200 to 5000 nM.
Regarding `COC(=O)N1CCO[C@@H](Cc2c(-c3c(F)cc(-n4cnc(C5(C(=O)O)CC5)c4)cc3F)nc3cc(C)ccn23)C1` [Compound 113], under setting [1], the concentration for half-maximal inhibition (IC50) is 200 to 5000 nM.
On to `COC(=O)N1CCO[C@@H](Cc2c(-c3c(F)cc(-c4nc(C(=O)O)co4)cc3F)nc3cc(C)ccn23)C1` [Compound 114, (S)-2-(3,5-difluoro-4-(3-((4-(methoxycarbonyl)morpholin-2-yl)methyl)-7-methylimidazo[1,2-a]pyridin-2-yl)phenyl)oxazole-4-carboxylic acid], for which the IC50 was 10 to 50 nM.
Turning to `COC(=O)N1CCO[C@@H](Cc2c(-c3c(F)cc(-c4nc(C(C)(C)O)c[nH]4)cc3F)nc3cc(C)ccn23)C1` [Compound 115], under setting [1], the IC50 is 200 to 5000 nM.
Take `COC(=O)N1CCO[C@@H](Cc2c(-c3c(F)cc(-c4nc(C5(O)CC5)c[nH]4)cc3F)nc3cc(C)ccn23)C1` [Compound 116]: the half-maximal inhibitory concentration (IC50) lay within 10 to 50 nM.
Still for that read-out and setting: the figure for `COC(=O)N1CCO[C@@H](Cc2c(-c3c(F)cc(-n4cnc(C(C)(C)O)c4)cc3F)nc3cc(C)ccn23)C1` [Compound 117, methyl (S)-2-((2-(2,6-difluoro-4-(4-(2-hydroxypropan-2-yl)-1H-imidazol-1-yl)phenyl)-7-methylimidazo[1,2-a]pyridin-3-yl)methyl)morpholine-4-carboxylate] is 10 to 50 nM.
`COC(=O)N1CCO[C@@H](Cc2c(-c3c(F)cc(-c4nc(C5(O)CC5)co4)cc3F)nc3cc(C)ccn23)C1` [Compound 118]: under setting [1], the IC50 fell in the range of 200 to 5000 nM.
Take `COC(=O)N1CCO[C@@H](Cc2c(-c3c(F)cc(-c4ncc(C#N)o4)cc3F)nc3cc(C)ccn23)C1` [Compound 120]: the IC50 was less than 10 nM.
